Experimental data as given in patent publication US8802638B1, “Flavonoid treatment of glycogen synthase kinase-based disease” (University of South Florida, priority 2007, dated 2014).

Experiments:
PS1-APP association = assay: PS1-APP association, immunoprecipitation/Western blot in SweAPP N2a cells; format: cell-based, murine; settings: 20 μM for 4 hrs or siRNA transfection
Procedure: Cultured cells or mouse brain were lysed in ice-cold lysis buffer described above, and an aliquot corresponding to 50 μg of total protein was electrophoretically separated using 12% Tris-HCl or 16.5% Tris-tricine gels. Electrophoresed proteins were then transferred to PVDF membranes, washed in dH2O, and blocked for 1 hr at ambient temperature in Tris-buffered saline (TBS; Bio-Rad) containing 5% (w/v) non-fat dry milk. After blocking, membranes were hybridized for 1 hr at ambient temperature with various primary antibodies. Membranes were then washed 3× for 5 min each in dH2O and incubated for 1 hr at ambient temperature with the appropriate HRP-conjugated secondary antibody (1:1,000). All antibodies were diluted in TBS containing 5% (w/v) of non-fat dry milk. Blots were developed using the luminol reagent (Pierce Biotechnology). Densitometric analysis was done as previously described using a FluorS Multiimager with Quantity One™ software. Immunoprecipitation was performed for detection of sAPP-α, sAPP-β and Aβ by incubating 200 μg of total protein of each sample with various sequential combinations of 6E10 (1:100) and/or 22C11 (1:100) antibodies overnight with gentle rocking at 4° C., and 10 μL of 50% protein A-Sepharose beads were then added to the sample (1:10; Sigma) prior to gentle rocking for an additional 4 hrs at 4° C. Following washes with 1× cell lysis buffer, samples were subjected to Western blot as described above. Antibodies used for Western blot included the APP-carboxyl-terminal antibody (1:50)), amino-terminal APP antibody (clone 22C11), or 6E10 (1:1,000), or actin antibody (1:1,500; as an internal reference control). γ-secretase activity was quantified in cell lysates using available kits (R&D Systems, Minneapolis, Minn.), based on secretase-specific peptides conjugated to fluorogenic reporter molecules.
Cell lysates of luteolin-treated SweAPP N2a cells were immunoprecipitated by PS1 antibody and probed for APP to clarify how phospho-PS1 CTF isoforms may regulate γ-secretase activity, seen in FIGS. 26(A) through 27(B). As illustrated in FIGS. 26(A) and (B), the APP-PS1 association is disrupted by luteolin, SB-415286 treatment, and GSK-3α siRNA. […] Thus, GSK-3α or, more specifically, downstream phosphorylation of the PS1 CTF plays an essential role in regulating the association of γ-secretase complex with its APP substrate.

[1] = cited from earlier work
GSK-3α/β [2] = assay: Western blot of phosphorylated GSK-3α/β forms in SweAPP N2a cells; format: cell-based, murine; settings: 20 μM
Procedure: (§1) Cultured cells or mouse brain were lysed in ice-cold lysis buffer described above, and an aliquot corresponding to 50 μg of total protein was electrophoretically separated using 12% Tris-HCl or 16.5% Tris-tricine gels. Electrophoresed proteins were then transferred to PVDF membranes, washed in dH2O, and blocked for 1 hr at ambient temperature in Tris-buffered saline (TBS; Bio-Rad) containing 5% (w/v) non-fat dry milk. After blocking, membranes were hybridized for 1 hr at ambient temperature with various primary antibodies. Membranes were then washed 3× for 5 min each in dH2O and incubated for 1 hr at ambient temperature with the appropriate HRP-conjugated secondary antibody (1:1,000). Antibodies were obtained against the amino-terminus and carboxyl-terminus of PS1 (Chemicon, Temecula, Calif.), amino-terminus and carboxyl-terminus of APP (22C11), actin (Roche, Basel, Switzerland), Aβ (6E10, 48G) (Signet Laboratories, Dedham, Mass.), phosphor-GSK3α (ser^21, clone BK202) (Upstate, Lake Placid, N.Y.), phospho-GSK3α/β (pTyr^279/216) (Sigma), phospho-GSK-3β (Ser^9) (Sigma) and total GSK-3α/β (Sigma). All antibodies were diluted in TBS containing 5% (w/v) of non-fat dry milk. Blots were developed using the luminol reagent (Pierce Biotechnology). Densitometric analysis was done as previously described using a FluorS Multiimager with Quantity One™ software (39). […] Antibodies used for Western blot included the APP-carboxyl-terminal antibody (1:50)), amino-terminal APP antibody (clone 22C11), or 6E10 (1:1,000), or actin antibody (1:1,500; as an internal reference control). γ-secretase activity was quantified in cell lysates using available kits based on secretase-specific peptides conjugated to fluorogenic reporter molecules.
The effect luteolin had on a variety of proteins related to and/or required for proper functioning of the γ-secretase complex was evaluated to establish the mechanism whereby luteolin modulates γ-secretase activity and subsequent Aβ generation. […]

GSK-3α/β [3] = target: GSK-3α/β (Mus musculus, UniProt Q2NL51); assay: Western blot of phosphorylated GSK-3α/β forms in Tg2576-derived neuronal cells; format: cell-based, mice; parameters: endogenous in cells; host or cells: primary neuronal cells derived from Tg2576 mice; settings: 20 μM
Procedure: as §1, with “Antibodies were obtained against the amino-terminus and carboxyl-terminus of PS1 (Chemicon, Temecula, Calif.), amino-terminus and carboxyl-terminus of APP (22C11), actin (Roche, Basel, Switzerland), Aβ (6E10, 48G) (Signet Laboratories, Dedham, Mass.), phosphor-GSK3α (ser^21, clone BK202) (Upstate, Lake Placid, N.Y.), phospho-GSK3α/β (pTyr^279/216) (Sigma), phospho-GSK-3β (Ser^9) (Sigma) and total GSK-3α/β (Sigma). All antibodies were diluted in TBS containing 5% (w/v) of non-fat dry milk. Blots were developed using the luminol reagent (Pierce Biotechnology).” left out, “molecules. […]” for “molecules.”

Chain of GSK-3α/β (Mus musculus, UniProt Q2NL51) (Q2NL51 2-490): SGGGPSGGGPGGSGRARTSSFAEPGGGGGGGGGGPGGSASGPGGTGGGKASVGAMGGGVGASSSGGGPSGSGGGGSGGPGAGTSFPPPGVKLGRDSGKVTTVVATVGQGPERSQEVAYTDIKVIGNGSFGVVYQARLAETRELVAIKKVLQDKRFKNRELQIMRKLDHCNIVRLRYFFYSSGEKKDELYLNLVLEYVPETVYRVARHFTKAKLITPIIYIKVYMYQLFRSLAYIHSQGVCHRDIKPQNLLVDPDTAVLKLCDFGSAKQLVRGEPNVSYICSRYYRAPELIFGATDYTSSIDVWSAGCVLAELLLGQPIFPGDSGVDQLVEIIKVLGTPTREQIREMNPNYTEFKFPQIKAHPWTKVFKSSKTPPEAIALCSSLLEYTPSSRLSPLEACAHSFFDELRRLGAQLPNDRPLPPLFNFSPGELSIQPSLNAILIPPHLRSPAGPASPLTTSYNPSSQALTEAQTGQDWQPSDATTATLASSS

Question: With `O=c1cc(-c2ccc(O)c(O)c2)oc2cc(O)cc(O)c12` [luteolin] as the compound, how does the “ratio of APP to actin (full-length APP levels)” value (PS1-APP association; 6E10 Western blot of lysates) read?
Answer: no significant changes

Question: What about the APP-PS1 association (PS1-APP association; IP with anti-PS1 CTF, 6E10 blot) of the same compound?
Answer: disrupted

Question: And the half-life in plasma ([1]; in vivo)?
Answer: < 4 h

Question: What about the oral bioavailability ([1]; oral) of the same compound?
Answer: < 2%

Question: And the “overall expression of GSK3-α or β” value (GSK-3α/β [2]; Western blot)?
Answer: no significant changes

Question: What about the “selectivity of GSK-3α over GSK-3β inactivation” value (GSK-3α/β [2]; time course) of the same compound?
Answer: selectively inactivates GSK-3α isoforms over β isoforms

Question: And the “levels of serine 21-phosphorylated, inactive GSK-3α isoforms” value (GSK-3α/β [3])?
Answer: increased the levels
